From PMC10707737, “Indole Diterpene Derivatives from the Aspergillus flavus GZWMJZ-288, an Endophytic Fungus from Garcinia multiflora” (Molecules, 2023)
Entries after “also recorded” stand apart in the source; their conditions may differ.

Molecular target: T1, NPC1L1 (Homo sapiens, UniProt Q9UHC9)
T1 sequence (Q9UHC9 22-1359): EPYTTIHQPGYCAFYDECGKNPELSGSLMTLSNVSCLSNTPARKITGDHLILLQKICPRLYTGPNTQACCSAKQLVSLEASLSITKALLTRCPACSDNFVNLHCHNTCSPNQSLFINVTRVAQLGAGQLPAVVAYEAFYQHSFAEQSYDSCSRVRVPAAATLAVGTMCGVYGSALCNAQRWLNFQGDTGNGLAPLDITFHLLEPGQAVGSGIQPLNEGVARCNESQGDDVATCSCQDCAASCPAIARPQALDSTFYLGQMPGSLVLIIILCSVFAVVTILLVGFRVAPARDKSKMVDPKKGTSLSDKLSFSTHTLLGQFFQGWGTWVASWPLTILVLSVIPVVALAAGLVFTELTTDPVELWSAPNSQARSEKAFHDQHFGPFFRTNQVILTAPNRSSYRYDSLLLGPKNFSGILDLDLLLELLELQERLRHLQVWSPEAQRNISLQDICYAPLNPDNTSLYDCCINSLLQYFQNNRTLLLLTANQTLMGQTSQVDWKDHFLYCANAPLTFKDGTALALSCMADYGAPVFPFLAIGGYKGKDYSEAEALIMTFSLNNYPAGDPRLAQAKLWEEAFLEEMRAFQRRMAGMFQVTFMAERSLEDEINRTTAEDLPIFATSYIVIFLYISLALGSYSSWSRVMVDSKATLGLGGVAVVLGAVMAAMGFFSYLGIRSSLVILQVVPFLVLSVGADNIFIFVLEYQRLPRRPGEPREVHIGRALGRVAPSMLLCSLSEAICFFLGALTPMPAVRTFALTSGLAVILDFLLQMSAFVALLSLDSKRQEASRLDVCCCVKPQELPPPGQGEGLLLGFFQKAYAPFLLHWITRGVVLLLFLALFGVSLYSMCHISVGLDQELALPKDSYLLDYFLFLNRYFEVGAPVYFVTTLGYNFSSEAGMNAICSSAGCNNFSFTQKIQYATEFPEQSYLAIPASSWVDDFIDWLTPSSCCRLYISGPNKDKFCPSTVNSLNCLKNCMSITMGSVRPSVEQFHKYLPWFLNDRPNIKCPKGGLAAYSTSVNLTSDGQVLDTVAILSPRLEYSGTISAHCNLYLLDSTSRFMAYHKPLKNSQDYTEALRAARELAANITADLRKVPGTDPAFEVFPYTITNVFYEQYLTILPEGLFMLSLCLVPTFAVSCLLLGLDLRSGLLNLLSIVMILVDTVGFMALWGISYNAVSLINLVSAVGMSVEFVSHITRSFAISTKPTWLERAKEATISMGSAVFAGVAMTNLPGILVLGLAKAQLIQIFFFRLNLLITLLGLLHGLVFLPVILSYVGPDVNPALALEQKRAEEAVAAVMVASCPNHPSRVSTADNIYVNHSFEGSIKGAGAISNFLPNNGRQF
Assay: Combining ability test with NPC1L1 (SPR, Biacore)
Type: binding
Conditions: fixed concentration 10 μM; ezetimibe positive control
Method: NPC1L1 is currently considered to be the key protein for cholesterol absorption. It is impossible to evaluate the activity of targeting compounds on NPC1L1 through colorimetry assay due to NPC1L1′s lack of catalytic activity. The experiment was carried out under fixed concentration at 10 μM with ezetimibe as a positive control. Excess reactive esters on the sensor chip surface were blocked with 1 M ethanolamine (pH 8.5) for 7 min. The flow cell used for reference was activated and blocked as described above but remained uncoupled. Binding is typically reported in response units (RUs), which is defined as the response obtained from the flow cell containing the immobilized receptor minus the response obtained from the reference flow cell. CM5 series sensor chips and coupling reagents EDC and NHS were purchased from GE. The surface of the flow cell was activated for 7 min using a 1:1 mixture of 100 mM EDC and 100 mM NHS at a flow rate of 10 μL/mi. Subsequently, the corresponding proteins were injected over the surface for 7 min using the time and flow method (final immobilization level: 15,000 RU). Excess reactive esters on the sensor chip surface were blocked with 1 M ethanolamine (pH 8.5) for 7 min. The ability of compounds to combine with NPC1L1 protein was determined by the response value.

SMILES | binding ability with NPC1L1 (SPR response)
CC(=O)OCC(C)C1=C(c2c[nH]c3ccccc23)C2C(C)CC(O)C3(C)C(C)CCC(O)C23CC1 (stereo not drawn) [Compound 1, 26-dihydroxyaflavininyl acetate] | could bind well with NPC1L1; also recorded: comparable binding ability with NPC1L1
C=C(C)C1CCC23[C@H](C1c1c[nH]c4ccccc14)[C@H](C)C[C@@H](O)[C@@]2(C)[C@H](C)CC[C@@H]3O (stereo partly drawn) [Compound 4, 14-eoi-14-hydroxy10,23-dihydro-24,25-dehydroaflavinine] | could bind well with NPC1L1; also recorded: comparable binding ability with NPC1L1
CC(C)C1=C(c2c[nH]c3ccccc23)[C@@H]2[C@H](C)CC[C@@]3(C)[C@H](C)CC[C@H](O)C23CC1 (stereo partly drawn) [Compound 6, aflavinine] | could bind well with NPC1L1; also recorded: stronger than that of ezetimibe; also recorded: stronger binding ability with NPC1L1 than ezetimibe
